Measurements reported in PMC6792352, “Limited Chemical Structural Diversity Found to Modulate Thyroid Hormone Receptor in the Tox21 Chemical Library” (Environmental Health Perspectives, 2019).
Structures can show the parent of a compound that is named as a salt.

Experiment: in vitro
Details: rat, gh3-tre-luc cells

Compound	CC50 at 24 h (AC50 (uM) modified / 1000) [µM]	also measured
Clc1cc(C(Cl)(Cl)Cl)cnc1Cl [2,3-Dichloro-5-(trichloromethyl)pyridine]	> 90	
Nc1nc(N)nc(-c2ccccc2)n1 [6-Phenyl-1,3,5-triazine-2,4-diamine]	> 90	
Cc1cn([C@H]2C=C[C@@H](CO)O2)c(=O)[nH]c1=O [Stavudine]	> 90	
c1ccc(C2(c3ccccc3)CC2C2=NCCN2)cc1 (stereo not drawn) [Cifenline succinate]	> 50	
CC(=O)C1CCOC1=O (stereo not drawn) [3-Acetyldihydro-2(3H)-furanone]	> 100	
O=C(O)/C=C/c1ccc(/C=C/C(=O)O)cc1 [3,3'-(1,4-Phenylene)bis-2-propenoic acid]	> 50	
CCCCN1C(=O)c2ccccc2C1=O [2-Butyl-1H-isoindole-1,3(2H)-dione]	> 90	
CC1(C2CCC3(C)OC3C2)CO1 (stereo not drawn) [Limonene dioxide]	> 90	
C[C@]12CC[C@H]3[C@@H](CCC4=CC(=O)CC[C@@]43C)[C@@H]1CC[C@@H]2OC(=O)CCc1ccccc1 [Testosterone 17-phenylpropionate]		CC50 at 24 h (AC50 (uM) modified / 1000, Tox21_110001=Tox21_113116, viability, 1 nM T3 present, 24 h): > 90 µM
C#C[C@]1(O)CC[C@H]2[C@@H]3CCC4=CC(=O)CCC4=C3C=C[C@@]21CC [Gestrinone]	> 50	
Nc1c(Cl)cc(Cl)cc1Cl [2,4,6-Trichloroaniline]	> 90	
C[C@@H]1CC(=O)NN=C1c1ccc(NN=C(C#N)C#N)cc1 [Levosimendan]	14.8	
S=C(NC1CCCCC1)NC1CCCCC1 [N,N'-Dicyclohexylthiourea]	> 90	
NC(=O)c1cccc([N+](=O)[O-])c1 [3-Nitrobenzamide]	> 90	
CCCCCOC(=O)c1ccccc1C(=O)OCCCCC [Dipentyl phthalate]	> 90	
CC(COCCO)OCCO (stereo not drawn) [Pluronic F-127]	> 80	
CN(C)c1ccc(SC#N)cc1 [4-(Dimethylamino)phenylthiocyanate]	> 90	
BrCc1ccc(Br)cc1 [4-Bromobenzyl bromide]	> 90	
COP(=S)(OC)Oc1ccc(S(=O)(=O)N(C)C)cc1 [Famphur]		CC50 at 24 h (AC50 (uM) modified / 1000, Tox21_110001=Tox21_111946, viability, 1 nM T3 present, 24 h): > 50 µM; CC50 at 24 h (AC50 (uM) modified / 1000, Tox21_110001=Tox21_301907, viability, 1 nM T3 present, 24 h): > 90 µM
Nc1ccc(F)cc1 [4-Fluoroaniline]	> 100	
C1=C\CC/C=C/CC/C=C/CC/1 [1,5,9-Cyclododecatriene]	> 90	
O=C(NC(Cc1cc(=O)[nH]c2ccccc12)C(=O)O)c1ccc(Cl)cc1 (stereo not drawn) [Rebamipide]	> 50	
O=c1c2ccccc2oc2ccccc12 [Xanthone]	> 90	
[O-][n+]1ccc(Cl)cc1 [4-Chloropyridine 1-oxide]	> 100	
Cc1c(Cl)cccc1[N+](=O)[O-] [1-Chloro-2-methyl-3-nitrobenzene]	> 90	
CC(C)(O)CCCC1=CCC(C=O)CC1 (stereo not drawn) [4-(4-Hydroxy-4-methylpentyl)cyclohex-3-ene-1-carbaldehyde]	> 100	

Compound	CC50 at 24 h (AC50 (uM) modified / 1000) [µM]	also measured
CC1(C)CCC(NC(=O)[C@@H](N)CCC(=O)O)CC1 [Neboglamine]	> 50	
CC(c1ccc(O)cc1)c1ccc(O)cc1 [Bisphenol E]	> 90	
c1ccc2c(c1)Sc1ccccc1N2CC1CN2CCC1CC2 (stereo not drawn) [Mequitazine]	7.76	
CC1(C)S[C@@H]2[C@H](N3C(=O)[C@@H](c4ccccc4)NC3(C)C)C(=O)N2[C@H]1C(=O)O [Hetacillin potassium]	> 50	
C[C@H](N)[C@H](O)c1ccc(O)c(O)c1 [Levonordefrin]		CC50 at 24 h (AC50 (uM) modified / 1000, Tox21_110001=Tox21_112051, viability, 1 nM T3 present, 24 h): 22 µM
FC(F)(F)c1ccc(Cl)c(Cl)c1 [1,2-Dichloro-4-(trifluoromethyl)benzene]	> 90	
O=C(Nc1ccc(Br)cc1)c1cc(Br)c(Br)s1 [Tibrofan]	19.8	
C[C@H]1N=C(N)O[C@H]1c1ccccc1 (stereo in doubt) [(4R,5S)-4-methyl-5-phenyl-4,5-dihydro-1,3-oxazol-2-amine]		CC50 at 24 h (AC50 (uM) modified / 1000, Tox21_110001=Tox21_112818, viability, 1 nM T3 present, 24 h): > 90 µM
Cc1cn[nH]c1 [4-Methylpyrazole hydrochloride]	> 50	
CC1C(C)(C)C2=C(C(=O)CCC2)C1(C)C (stereo not drawn) [Dihydro-1,1,2,3,3-pentamethyl-4(5H)-indanone]	> 90	
COc1nc(NC(C)C)nc(NC(C)C)n1 [Prometon]		CC50 at 24 h (AC50 (uM) modified / 1000, Tox21_110001=Tox21_202098, viability, 1 nM T3 present, 24 h): > 90 µM
OCCBr [2-Bromo-1-ethanol]		CC50 at 24 h (AC50 (uM) modified / 1000, Tox21_110001=Tox21_201036, viability, 1 nM T3 present, 24 h): > 90 µM
CC(=O)Oc1ccc(C2(c3ccc(OC(C)=O)cc3)C(=O)Nc3ccccc32)cc1 [Oxyphenisatin acetate]	> 50	
CCCC/C=C/CCCCO [(E)-5-Decen-1-ol]	> 90	
O=C(OCC(O)CO)c1ccccc1Nc1ccnc2cc(Cl)ccc12 (stereo not drawn) [Glafenine hydrochloride]	> 20	
COc1ccc(C(=O)Nc2ccccc2)cc1[N+](=O)[O-] [4-Methoxy-3-nitro-N-phenylbenzamide]	> 90	
CCC1(CO)COCOC1 [(5-Ethyl-1,3-dioxan-5-yl)methanol]	> 90	
O=P(OCCCl)(OCCCl)OCCCl [Tris(2-chloroethyl) phosphate]		CC50 at 24 h (AC50 (uM) modified / 1000, Tox21_110001=Tox21_201254, viability, 1 nM T3 present, 24 h): > 90 µM
CC(C)CCCCCCOC(=O)CCCCC(=O)OCCCCCCC(C)C [Hexanedioic acid, diisononyl ester]	> 90	
CN1C(=O)c2ccc([N+](=O)[O-])cc2C1=O [N-Methyl-4-nitrophthalimide]	> 90	
CCCCCC1C(=O)CCC1CC(=O)OC (stereo not drawn) [Methyl dihydrojasmonate]	> 90	
OCCSc1ccccc1 [2-Phenylmercaptoethanol]	> 90	
CC(C)=CCN1CC[C@@]2(C)c3cc(O)ccc3C[C@@H]1[C@@H]2C [(-)-Pentazocine succinate]		CC50 at 24 h (AC50 (uM) modified / 1000, Tox21_110001=Tox21_112877, viability, 1 nM T3 present, 24 h): 34.4 µM
CCCCC(C#N)(Cn1cncn1)c1ccc(Cl)cc1 (stereo not drawn) [Myclobutanil]	> 90	
OCc1ccc(Cl)cc1Cl [2,4-Dichlorobenzyl alcohol]	> 90	
COc1ccc2c3c1O[C@H]1[C@@H](O)C=C[C@H]4[C@@H](C2)NCC[C@@]341 [N-Norcodeine hydrochloride]		CC50 at 24 h (AC50 (uM) modified / 1000, Tox21_110001=Tox21_112824, viability, 1 nM T3 present, 24 h): > 100 µM

Compound	CC50 at 24 h (AC50 (uM) modified / 1000) [µM]	also measured
CCCCCCCCCCCCCCCCCCOCCO [Polyethylene glycol stearyl ether]	> 20	
C1CCOC1 [Tetrahydrofuran]	> 100	
C=C[Si](C)(C=C)O[Si](C)(C)C [Divinyltetramethyldisiloxane]	> 90	
OC/C(Br)=C(\Br)CO [(2E)-2,3-Dibromo-2-butene-1,4-diol]	> 90	
COc1cc(NC(C)CCCN)c2ncccc2c1 (stereo not drawn) [Primaquine diphosphate]	15	
N=C(N)NCCC[C@H](NC(=O)[C@@H]1CCCN1C(=O)[C@@H]1CSSCCC(=O)N[C@@H](Cc2ccc(O)cc2)C(=O)N[C@@H](Cc2ccccc2)C(=O)N[C@@H](CCC(N)=O)C(=O)N[C@@H](CC(N)=O)C(=O)N1)C(=O)NCC(N)=O [Desmopressin acetate]	> 50	
CC=O [Acetaldehyde]	3.09	
CCC(=O)O[C@H]1[C@H](O[C@@H]2[C@@H](C)[C@H](O[C@H]3C[C@@](C)(OC)[C@@H](O)[C@H](C)O3)[C@@H](C)C(=O)O[C@H](CC)[C@@](C)(O)[C@H](O)[C@@H](C)C(=O)[C@H](C)C[C@@]2(C)O)O[C@H](C)C[C@@H]1N(C)C [Erythromycin propionate]	13.1	
CC(C)(C)NCC(O)CSc1nc(-c2ccc(C(N)=O)s2)cs1 (stereo not drawn) [Arotinolol hydrochloride]	> 50	
CCCN(C1CCN(C(=O)C2CCNCC2)CC1)[C@@H]1CCc2ccc(OC)cc2C1 [PharmaGSID_48509]	69.1	
O=S(=O)(O)Oc1ccc(C(c2ccc(OS(=O)(=O)O)cc2)c2ccccn2)cc1 [Picosulfate sodium]	> 50	
CCOC(=O)[C@H](CCc1ccccc1)N[C@@H](C)C(=O)N1[C@H](C(=O)O)C[C@@H]2CCC[C@@H]21 [Ramipril]	> 50	
CCCCOCC(C)OCC(C)O (stereo not drawn) [1-(2-Butoxy-1-methylethoxy)propan-2-ol]	> 90	
C=CC(=O)OCCCC [Butyl acrylate]	> 90	
NC[C@H]1CC[C@H](C(=O)O)CC1 [Tranexamic acid]	> 20	
Cc1ccccc1Br [2-Bromotoluene]	> 90	
CCCCCCCCC1CO1 (stereo not drawn) [1,2-Epoxydecane]	> 90	
C=CC(=O)OCCCl [2-Chloroethyl acrylate]	> 90	
O=S(=O)(O)c1ccc2cc(O)c(S(=O)(=O)O)cc2c1 [Disodium 3-hydroxynaphthalene-2,7-disulfonate]	> 90	
CO/N=C(\C(=O)N[C@@H]1C(=O)N2C(C(=O)O)=CCS[C@H]12)c1csc(N)n1 [Ceftizoxime sodium]	> 50	
C=C(C)OC(C)=O [Isopropenyl acetate]	> 90	
CCC(C)O (stereo not drawn) [2-Butanol]	> 90	
CC(C)OC(=O)Cc1ccccc1 [Isopropyl phenylacetate]		CC50 at 24 h (AC50 (uM) modified / 1000, Tox21_110001=Tox21_201145, viability, 1 nM T3 present, 24 h): > 90 µM
N=C(N)n1cccn1 [Praxadine hydrochloride]	> 50	
CNCC(O)c1ccc(OC(=O)C(C)(C)C)c(OC(=O)C(C)(C)C)c1 (stereo not drawn) [Dipivefrin hydrochloride]	10.3	
